Results published in patent US11155567B2, “Sting agonist compounds and methods of use” (Mersana Therapeutics, Inc., priority 2019, dated 2021).

Key:
Type in all cases: cell-based
[1] = biological target: T1, R232H human STING variant (Homo sapiens, UniProt Q86WV6); assay: IRF3 reporter induction in THP1-Dual KI-hSTING-H232 Cells; details: THP1-Dual KI-hSTING-H232 Cells (R232H Haplotype)
T1 construct: host or cells: THP1-Dual KI-hSTING-H232 cells, generated from THP1-Dual KO-STING cells
Method: (§1) THP1-Dual™ Human Monocytes cells with the homozygous HAQ allele, known to be a natural variant allele of STING occurring in 20% of the human population (Invivogen) have been engineered with two independent gene reporter systems: a secreted embryonic alkaline phosphatase (SEAP) reporter gene for NFkB activity, and secreted luciferase reporter for […] (IRF3) activity were used. 4×10^5 THP1-Dual™ cells were incubated with test Compounds in a 5-fold titration steps from 1 to 0.0128 μM in RPMI media with 10% FBS, for 24 hours at 37° C. with 5% CO2. Cell culture supernatants (20 μl) from each incubated sample was added to resuspended QUANTI-Blue™ Solution (Invivogen, 180 μl) in each well of a flat-bottom 96-well plate, then incubated for 2 h. NFkB levels were evaluated using a spectrophotometer at 620-655 nm.
(§2) To evaluate IRF3 reporter levels, cell culture supernatant (20 μl) from each incubated sample was added to QUANTI-Luc™ assay solution (Invivogen, 50 μl), and the luminescence was measured with a SpectraMax M3 spectrophotometer (Molecular Devices).
(§3) NFkB and IRF3 reporter levels were also determined for THP1-Dual™ KI-hSTING-H232 Cells and THP1-Dual™ KI-hSTING-R232 Cells. THP1-Dual™ KI-hSTING-H232 Cells (R232H Haplotype) were generated from THP1-Dual™ KO-STING cells by knockin of the intronless coding sequence (from the ATG to TGA) of the R232H human STING variant (Invivogen). R232H has been identified as a natural variant allele of STING occurring in ˜14% of the human population. THP1-Dual™ KI-hSTING-R232 Cells (R232 Haplotype) were generated from THP1-Dual™ KO-STING cells by knockin of the intronless coding sequence (from the ATG to the TGA) of the R232 hSTING variant. Genomic studies indicate that this variant, which contains an arginine at position 232 (R232), is the most prevalent variant with an occurrence (homozygous allele) of ˜45-58% in the human population.
(§4) The EC50 value was determined from the dose response curve based on reference Compounds. Table 2a provides the results for IRF3 reporter induction THP1-Dual™ Human Monocytes cells and Table 2b provides the results for IRF3 reporter induction in THP1-Dual™ KI-hSTING-H232 Cells and THP1-Dual™ KI-hSTING-R232 Cells (“A” means <30 nM; “B” means ≥30 nM and <100 nM; “C” means ≥100 nM).

R232 hSTING variant = biological target: T2, R232 hSTING variant (Homo sapiens, UniProt Q86WV6, H232R); assay: IRF3 reporter induction in THP1-Dual KI-hSTING-R232 Cells; details: THP1-Dual KI-hSTING-R232 Cells (R232 Haplotype)
T2 construct: expressed in transfected cells; host or cells: THP1-Dual KI-hSTING-R232 cells, generated from THP1-Dual KO-STING cells
T2 sequence (Q86WV6 whole entry H232R): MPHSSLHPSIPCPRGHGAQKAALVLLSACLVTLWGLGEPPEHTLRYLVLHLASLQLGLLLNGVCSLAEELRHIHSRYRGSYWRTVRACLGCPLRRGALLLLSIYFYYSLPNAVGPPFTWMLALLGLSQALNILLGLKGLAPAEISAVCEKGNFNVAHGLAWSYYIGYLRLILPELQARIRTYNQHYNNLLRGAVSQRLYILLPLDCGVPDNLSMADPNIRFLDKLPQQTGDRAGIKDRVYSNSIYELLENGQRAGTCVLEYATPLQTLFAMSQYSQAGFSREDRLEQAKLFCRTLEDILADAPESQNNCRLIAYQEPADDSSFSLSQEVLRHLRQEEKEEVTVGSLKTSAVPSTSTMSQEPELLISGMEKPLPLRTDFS
Method: as §1, §2, §3, §4

Human STING (HAQ allele) = biological target: T3, Human STING (HAQ allele) (Homo sapiens, UniProt Q86WV6, G230A/H232R/R293Q/R71H); assay: IRF3 reporter induction in THP1-Dual Human Monocytes cells (homozygous HAQ STING allele); details: IRF3 reporter (secreted luciferase), 24 hours incubation
T3 construct: THP1-Dual™ Human Monocytes cells with the homozygous HAQ allele; host or cells: THP1-Dual human monocytes
T3 sequence (Q86WV6 whole entry R71H/G230A/H232R/R293Q): as the sequence (Q86WV6 whole entry H232R) above, with R71H, G230A, R293Q counted along it
Method: as §1, §2, §4

Human STING = biological target: T4, Human STING (Homo sapiens, UniProt Q86WV6, G230A/H232R/R293Q/R71H); assay: Activation of human STING signaling in permeabilized THP1 cells, IRF3 induction; details: THP1-Dual cells permeabilized with digitonin buffer 30 minutes on ice, then 24 h in RPMI media
T4 construct: host or cells: THP1-Dual cells, digitonin-permeabilized
T4 sequence (Q86WV6 whole entry R71H/G230A/H232R/R293Q): as the sequence (Q86WV6 whole entry H232R) above, with R71H, G230A, R293Q counted along it
Method: as §2
4×10^5 THP1-Dual™ cells (NF-κB-SEAP and IRF-Lucia luciferase Reporter Monocytes, Invivogen) were incubated with test Compounds in a 5-fold titration steps from […] in permeabilized buffer (50 mM HEPES pH 7.0, 100 mM KCl, 3 mM MgCl2, 85 mM sucrose, 0.2% BSA, 1 mM ATP, 0.1 mM GTP, 0.1 mM TTP, 1 μg/ml digitonin) for 30 minutes on ice. Cells were then washed and incubated in a fresh RPMI media with 10% FBS at 37° C. with 5% CO2 for 24 h. Cell culture supernatants from each sample were collected and NFkB and IRF3 were evaluated as above. Table 3 provides the results for IRF3 induction (“A” means <1 μM; “B” means ≥1 μM and <50 μM; “C” means ≥50 μM).

T1 sequence (Q86WV6 whole entry, stated change not applied): as the sequence (Q86WV6 whole entry H232R) above, with R232H counted along it

Structure (SMILES) | EC50 (Human STING) [µM] | further results
COc1cc(C(N)=O)cc2nc(NC(=O)c3cnc(C)n3C)n(C/C=C/Cn3c(NC(=O)c4cnc(C)n4C)nc4cc(C(N)=O)cc(OCCCO)c43)c12 [compound 16] | ≥ 50 | –
COc1cc(C(N)=O)cc2nc(NC(=O)c3cnc(C(F)(F)F)s3)n(C/C=C/Cn3c(NC(=O)c4cnc(C(F)(F)F)s4)nc4cc(C(N)=O)cc(OCCCO)c43)c12 [compound 17] | ≥ 50 | –
Cn1nncc1C(=O)Nc1nc2cc(C(N)=O)ccc2n1C/C=C/Cn1c(NC(=O)c2cnnn2C)nc2cc(C(N)=O)cc(OCCCO)c21 [compound 27] | ≥ 50 | –
NC(=O)c1ccc2c(c1)nc(NC(=O)c1cocn1)n2C/C=C/Cn1c(NC(=O)c2cocn2)nc2cc(C(N)=O)cc(OCCCO)c21 [compound 28] | ≥ 50 | –
CCc1nc(C)n(C)c1C(=O)Nc1nc2cc(C(N)=O)cc(OCCCO)c2n1C/C=C/Cn1c(NC(=O)c2cc(C)nn2CC)nc2cc(C(N)=O)cc(OC)c21 [compound 41] | ≥ 50 | –
CCc1nn(C)cc1C(=O)Nc1nc2cc(C(N)=O)cc(OCCCO)c2n1C/C=C/Cn1c(NC(=O)c2cc(C)nn2CC)nc2cc(C(N)=O)ccc21 [compound 53] | < 1 | EC50 (Human STING (HAQ allele)): ≥ 0.1 µM
CCc1ncoc1C(=O)/N=c1\sc2cc(C(N)=O)cc(OC)c2n1C/C=C/Cn1c(NC(=O)c2ocnc2CC)nc2cc(C(N)=O)cc(OCCCO)c21 [compound 64] | ≥ 50 | –
CCn1nc(C)cc1C(=O)/N=c1\sc2cc(C(N)=O)cc(OC)c2n1C/C=C/Cn1c(NC(=O)c2cc(C)nn2CC)nc2cc(C(N)=O)cc(OCCCO)c21 [compound 65] | < 1 | EC50 (Human STING (HAQ allele)): < 0.03 µM
CCn1nc(C)cc1C(=O)/N=c1\sc2cc(C(N)=O)cc(OC)c2n1C/C=C/Cn1c(NC(=O)c2cc(C)nn2CC)nc2cc(C(N)=O)cc(OCCCN)c21 [compound 67] | < 1 | –
CCc1nc(C)oc1C(=O)Nc1nc2cc(C(N)=O)cc(OCCCO)c2n1C/C=C/Cn1/c(=N/C(=O)c2cc(C)nn2CC)sc2cc(C(N)=O)cc(OC)c21 [compound 69] | – | EC50 [1]: < 0.03 µM; EC50 (R232 hSTING variant): < 0.03 µM; EC50 (Human STING (HAQ allele)): ≥ 0.1 µM
CCc1nc(C)oc1C(=O)/N=c1\sc2cc(C(N)=O)cc(OC)c2n1C/C=C/Cn1c(NC(=O)c2sc(C)nc2CC)nc2cc(C(N)=O)cc(OCCCO)c21 [compound 70] | ≥ 50 | –
CCn1nc(C)cc1C(=O)/N=c1\sc2cc(C(N)=O)cc(OC)c2n1C/C=C/Cn1c(NC(=O)c2ncnn2C(C)C)nc2cc(C(N)=O)cc(OCCCO)c21 [compound 71] | 1 to 50 | –
CCn1nc(C)cc1C(=O)/N=c1\sc2cc(C(N)=O)cc(OC)c2n1C/C=C/Cn1c(NC(=O)C2=C(C)OCC2)nc2cc(C(N)=O)cc(OCCCO)c21 [compound 75] | ≥ 50 | –
CCc1nc(C)oc1C(=O)Nc1nc2cc(C(N)=O)cc(OCCCO)c2n1C/C=C/Cn1/c(=N/C(=O)c2sc(C)nc2CC)sc2cc(C(N)=O)cc(OC)c21 [compound 76] | < 1 | –
CCn1nc(C)cc1C(=O)Nc1nc2cc(C(N)=O)cnc2n1C/C=C/Cn1c(NC(=O)c2cc(C)nn2CC)nc2cc(C(N)=O)cnc21 [compound 84] | < 1 | –
CCc1nc(C)oc1C(=O)Nc1nc2cc(C(N)=O)cnc2n1C/C=C/Cn1c(NC(=O)c2oc(C)nc2CC)nc2cc(C(N)=O)cnc21 [compound 85] | 1 to 50 | –
CCn1nc(C)cc1C(=O)Nc1nc2cc(C(N)=O)cnc2n1C/C=C/Cn1c(NC(=O)c2cc(C)nn2CC)nc2cc(C(N)=O)cc(Br)c21 [compound 89] | < 1 | –
CCc1nc(C)oc1C(=O)Nc1nc2cc(C(N)=O)cnc2n1C/C=C/Cn1c(NC(=O)c2oc(C)nc2CC)nc2cc(C(N)=O)cc(Br)c21 [compound 90] | < 1 | –
CCn1nc(C)cc1C(=O)Nc1nc2cc(C(N)=O)cnc2n1C/C=C/Cn1c(NC(=O)c2cc(C)nn2CC)nc2cc(C(N)=O)cc(OCCCO)c21 [compound 94] | < 1 | –
CCc1nc(C)oc1C(=O)Nc1nc2cc(C(N)=O)cnc2n1C/C=C/Cn1c(NC(=O)c2oc(C)nc2CC)nc2cc(C(N)=O)cc(OCCCN)c21 [compound 96] | < 1 | –
CCc1nc(C)oc1C(=O)Nc1nc2cc(C(N)=O)cnc2n1C/C=C/Cn1c(NC(=O)c2oc(C)nc2CC)nc2cc(C(N)=O)cc(OCCCC(=O)O)c21 [compound 97] | < 1 | EC50 (Human STING (HAQ allele)): ≥ 0.1 µM
CCn1nc(C)cc1C(=O)/N=c1\sc2cc(C(N)=O)cnc2n1C/C=C/Cn1c(NC(=O)c2cc(C)nn2CC)nc2cc(C(N)=O)cc(OCCCO)c21 [compound 110] | < 1 | –
CCc1nc(C)oc1C(=O)/N=c1\sc2nc(C(N)=O)cnc2n1C/C=C/Cn1c(NC(=O)c2oc(C)nc2CC)nc2cc(C(N)=O)cc(OCCCO)c21 [compound 167] | – | EC50 [1]: 0.03 to 0.1 µM; EC50 (R232 hSTING variant): 0.03 to 0.1 µM; EC50 (Human STING (HAQ allele)): ≥ 0.1 µM

Continued, in another order:

EC50 (Human STING) [µM] | Structure (SMILES) | further results
< 1 | CCc1nc(C)oc1C(=O)Nc1nc2cc(C(N)=O)cc(OC)c2n1C/C=C/Cn1c(NC(=O)c2oc(C)nc2CC)nc2cc(C(N)=O)cc(OCCCO)c21 [compound 9] | EC50 [1]: < 0.03 µM; EC50 (R232 hSTING variant): < 0.03 µM; EC50 (Human STING (HAQ allele)): 0.03 to 0.1 µM
< 1 | CCc1nc(C)oc1C(=O)Nc1nc2cc(C(N)=O)cc(OC)c2n1C/C=C/Cn1c(NC(=O)c2oc(C)nc2CC)nc2cc(C(N)=O)cc(OCCCN)c21 [compound 18] | EC50 (Human STING (HAQ allele)): 0.03 to 0.1 µM
< 1 | CCc1nc(C)oc1C(=O)Nc1nc2cc(C(N)=O)cc(OC)c2n1C/C=C/Cn1c(NC(=O)c2oc(C)nc2CC)nc2cc(C(N)=O)cc(OCCCC(=O)O)c21 [compound 19] | –
< 1 | Cc1cc(C(=O)Nc2nc3cc(C(N)=O)ccc3n2C/C=C/Cn2c(NC(=O)c3cc(C)on3)nc3cc(C(N)=O)cc(OCCCO)c32)no1 [compound 26] | –
< 1 | CCc1nc(C)oc1C(=O)Nc1nc2cc(C(N)=O)cc(OCCCO)c2n1C/C=C/Cn1c(NC(=O)c2cc(C)nn2CC)nc2cc(C(N)=O)cc(OC)c21 [compound 36] | –
< 1 | CCc1nc(C)oc1C(=O)Nc1nc2cc(C(N)=O)cc(OCCCO)c2n1C/C=C/Cn1c(NC(=O)c2sc(C)nc2CC)nc2cc(C(N)=O)cc(OC)c21 [compound 37] | –
< 1 | CCc1nc(C)sc1C(=O)Nc1nc2cc(C(N)=O)cc(OCCCO)c2n1C/C=C/Cn1c(NC(=O)c2cc(C)nn2CC)nc2cc(C(N)=O)cc(OC)c21 [compound 38] | –
< 1 | CCc1nn(C)cc1C(=O)Nc1nc2cc(C(N)=O)cc(OCCCO)c2n1C/C=C/Cn1c(NC(=O)c2cc(C)nn2CC)nc2cc(C(N)=O)cc(OC)c21 [compound 39] | –
< 1 | CCc1nc(C)oc1C(=O)Nc1nc2cc(C(N)=O)cc(OC)c2n1C/C=C/Cn1c(NC(=O)c2sc(C)nc2CC)nc2cc(C(N)=O)cc(OCCCO)c21 [compound 40] | –
< 1 | CCc1nc(C)oc1C(=O)Nc1nc2cc(C(N)=O)cc(OC)c2n1C/C=C/Cn1c(NC(=O)c2cc(C)nn2CC)nc2cc(C(N)=O)cc(OCCCO)c21 [compound 43] | EC50 (Human STING (HAQ allele)): < 0.03 µM
< 1 | CCc1nc(C)oc1C(=O)Nc1nc2cc(C(N)=O)cc(OCCCO)c2n1C/C=C/Cn1c(NC(=O)c2cc(C)nn2CC)nc2cc(C(N)=O)ccc21 [compound 51] | –
< 1 | CCc1nc(C)sc1C(=O)Nc1nc2cc(C(N)=O)cc(OCCCO)c2n1C/C=C/Cn1c(NC(=O)c2cc(C)nn2CC)nc2cc(C(N)=O)ccc21 [compound 52] | –
